In patent publication US12139481B2, “Compositions comprising macrocycle derivatives incorporating bridged macrocycles and methods of producing and using same” (Southwestern Oklahoma State University, priority 2015, dated 2024):
Read-outs that look alike come from different tables or passages of the source.

Key:
[1] = system: L. donovani promastigotes; test: Antileishmanial Alamar Blue assay on promastigotes; assay type: cell-based, Leishmania donovani; conditions: for X more potent than Pentamidine: L. donovani, ratio of molar IC50 to Pentamidine; for L. donovani IC50 / IC50: promastigotes, 48 hours, Alamar Blue; for IC50: read-out: L. donavani IC50
Procedure, shortened: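 Alamar Blue fluorescence (544/590 nm) quantified growth after 48 hours at 26° C of compound-treated promastigotes. Parasites were seeded at 5×10^5/mL in RPMI 1640 plus 10% FCS; drug range 50-3.1 μg/mL, and IC50 derived by plotting percent growth against test concentration.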

[2] = system: Cryptococcus neoformans ATCC 90113; test: Antimicrobial microdilution assay against Cryptococcus neoformans (modified CLSI/NCCLS, optical density); assay type: cell-based; conditions: for X more potent than Amphotericin B: C. neoformans, ratio of molar IC50 to Amphotericin B; for C. neoformans IC50 / IC50: in vitro, C. neoformans ATCC 90113; for IC50: read-out: C. neoformans IC50 (mol/L)
Procedure, shortened: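 Fungicidal endpoint taken by subculturing 5 μL from each clear well onto agar, MFC being the lowest concentration with no regrowth. Duplicate wells of serially diluted compound (20% DMSO/saline) in RPMI pH 6.0, read at 630 nm pre- and post-incubation, under modified CLSI methods. IC50 means 50% growth inhibition against controls.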

C. krusei ATCC 6258 = test: Antifungal broth dilution assay against C. krusei (modified CLSI); assay type: cell-based, Candida krusei; conditions: for X more potent than Amphotericin B: C. krusei, ratio of molar IC50 to amphotericin B; for C. krusei IC50 / IC50: in vitro; for IC50: read-out: C. krusei IC50 (mol/L)
Description: General Experimental Procedures. All organisms were obtained from the American Type Culture Collection (Manassas, VA) and include the fungi Candida albicans ATCC 90028, C. glabrata ATCC 90030, C. krusei ATCC 6258, and Cryptococcus neoformans ATCC 90113, and the bacteria Staphylococcus aureus ATCC 29213 and methicillin-resistant S. aureus ATCC 33591 (MRS). All organisms were tested using modified versions of the CLSI (formerly NCCLS) methods. For all organisms, optical density was used to monitor growth (NCCLS, Reference Method for Broth Dilution Antifungal Susceptibility Testing of Yeasts; Approved Standard M27-A2. National Committee on Clinical Laboratory Standards, 2002 22 (15); and NCCLS, Methods for Dilution Antimicrobial Susceptibility Tests for Bacteria that Grow Aerobically; Approved Standard, Seventh Edition M7-A7. National Committee on Clinical Laboratory Standards, 2006. 26(2)).
Samples (dissolved in DMSO) were serially-diluted in 20% DMSO/saline and transferred (10 μL) in duplicate to 96 well flat bottom microplates. Inocula were prepared by correcting the OD630 of microbe suspensions in incubation broth [RPMI 1640/0.2% dextrose/0.03% glutamine/MOPS @ pH 6.0 (Cellgro) for Candida spp., Sabouraud Dextrose for C. neoformans, and cation-adjusted Mueller-Hinton (Difco) @ pH 7.3 for Staphylococcus spp. to afford an assay volume of […] and final target inocula of: Candida spp. and C. neoformans: 1.5×10^3, and Staphylococcus spp.: 5.0×10^5 CFU/ml. Final sample test concentrations were 1/100th the DMSO stock concentration. […] All organisms were read at either 530 nm using the Biotek Powerwave XS plate reader (Bio-Tek Instruments, Vermont) prior to and after incubation: Candida spp. at 35° C. for 46-50 h, Staphylococcus spp. at 35° C. for 16-20 h, and C. neoformans at 35° C. for 70-74 h. IC50s (concentrations that afford 50% inhibition relative to controls) were calculated using XLfit 4.2 software (IDBS, Alameda, CA) using fit model 201. The MIC is defined as the lowest test concentration that allows no detectable growth. Minimum fungicidal or bactericidal concentrations were determined by removing 5 μl from each clear (or blue) well, transferring to fresh media, and incubating as previously mentioned. The MFC/MBC is defined as the lowest test concentration that kills the organism (allows no growth).
Primary Analysis. Samples were tested in duplicate at one test concentration (50 μg/mL), and percent inhibitions were calculated relative to blank and growth controls. Samples showing 50% inhibition in at least one test organism were selected for dose response (Secondary) studies.
Secondary Analysis. Extracts from the Primary Assay, and first-run pure compounds and column fractions were tested in duplicate at 3 test concentrations (5-fold dilutions). Samples dissolved to 20 mg/mL in DMSO were tested at 200, 40, and 8 μg/mL. Samples dissolved to 2 mg/mL in DMSO were tested at 20, 4, and 0.8 μg/mL.

[3] = system: Plasmodium falciparum D6 clone (Sierra Leon, chloroquine-sensitive); test: In vitro antimalarial assay, chloroquine-sensitive D6 clone; assay type: cell-based; conditions: D6 clone; for IC50: converted with molecular weight, read-out: P. falciparum D6 IC50; for X more potent than chloroquine: molar IC50 ratio versus chloroquine
Description: (§1) The compounds were assayed for in vitro antimalarial activity against the W2 clone and D6 clone of the pathogenic Plasmodium falciparum. The strains of P. falciparum were obtained from the Division of Experimental Therapeutics, Walter Reed Army Institute of Research, Washington D.C. Strains of Sierra Leon D6 and Indochina W2 are chloroquine-sensitive and chloroquine-resistant, respectively. The parasite was grown in type A human RBCs and, two strains subcultured daily with fresh medium and blood cells. On the day of the assay, a suspension of infected blood cells (2% parasitemia and 2% hematocrit) was prepared using type A human red blood cells. Assays were performed by standard 96-well flat-bottomed microplate methods and done in duplicate at different concentrations. IC50 values were obtained from the dose curves. Artemisinin and chloroquine were included in each assay as the drug controls, and DMSO was used as vehicle control. The whole protocol was developed based on the published method of Makler. The cytotoxicity assays were also performed in parallel against the Vero cells, and the selectivity index was measured. A selectivity index of >9 was considered to indicate a lead for further development of antimalarial drug.

[4] = system: Plasmodium falciparum W2 clone (Indochina, chloroquine-resistant); test: In vitro antimalarial assay, chloroquine-resistant W2 clone; assay type: cell-based; conditions: W2 clone; for IC50: converted with molecular weight, read-out: P. falciparum W2 IC50; for X more potent than chloroquine: molar IC50 ratio versus chloroquine
Description: as §1

Molecule | X more potent than Pentamidine [1] | L. donovani IC50 [1] [µg/mL] | IC50 [1] [µM] | X more potent than Amphotericin B [2] | C. neoformans IC50 [2] [µg/mL] | IC50 [2] [µM] | X more potent than Amphotericin B (C. krusei ATCC 6258) | C. krusei IC50 (C. krusei ATCC 6258) [µg/mL] | IC50 (C. krusei ATCC 6258) [µM] | IC50 ([2]; HCl salt) [µM] | P. falciparum D6 IC50 [3] [µg/mL] | IC50 [3] [µM] | X more potent than chloroquine [3] | P. falciparum W2 IC50 [4] [µg/mL] | IC50 [4] [µM] | X more potent than chloroquine [4]
CC(=O)[O-].F[P-](F)(F)(F)(F)F.F[P-](F)(F)(F)(F)F.F[P-](F)(F)(F)(F)F.[Mn+2].[NH4+].[NH4+].c1ccc(CN2CCN3CCCN(CC2)CCN(Cc2ccccc2)CC3)cc1 [AW036, [Mn(Bn2PBCyclen)(C2H3O2)]PF6•2NH4PF6] | 0.20 | 25.41 | 26 | 0.03 | 7.070 | 7.23 | 0.29 | 4.990 | 5.11 |  |  |  |  |  |  | 
CC(=O)[O-].F[P-](F)(F)(F)(F)F.[Zn+2].c1ccc(CN2CCN3CCCN(CC2)CCN(Cc2ccccc2)CC3)cc1 [AW041, [Zn(Bn2PBCyclen)(C2H3O2)]PF6] | 0.15 | 22.92 |  | 0.02 | 7.330 |  | 0.19 | 5.170 |  |  |  |  |  |  |  | 
c1c(CN2CCNCCN3CCN(CC3)CC2)cc(CN2CCNCCN3CCN(CC3)CC2)cc1CN1CCNCCN2CCN(CC2)CC1 [CDG29, tris-SB-cyclens] | 0.32 | 11.69 | 16.5 | 1.69 | 0.100 | 0.141 | 0.23 | 4.660 | 6.57 |  |  |  |  |  |  | 
CC(=O)[O-].CC(=O)[O-].F[P-](F)(F)(F)(F)F.F[P-](F)(F)(F)(F)F.O.O.[Cu+2].[Cu+2].c1cc(CN2CCNCCN3CCN(CC3)CC2)cc(CN2CCNCCN3CCN(CC3)CC2)c1 [OB34, [Cu2(m-SB-Cyclens)(OAc)2][PF6]2•2H2O] |  |  |  | 0.32 | ≤ 0.800 | 0.748 | 0.28 | 5.780 | 5.4 |  |  |  |  |  |  | 
CC(=O)[O-].CC(=O)[O-].F[P-](F)(F)(F)(F)F.F[P-](F)(F)(F)(F)F.O.[Ni+2].[Ni+2].c1cc(CN2CCNCCN3CCN(CC3)CC2)cc(CN2CCNCCN3CCN(CC3)CC2)c1 [OB35, [Ni2(m-SB-Cyclens)(OAc)2][PF6]2•H2O] |  |  |  | 0.31 | ≤ 0.800 | 0.768 | 1.95 | 0.800 | 0.768 |  |  |  |  |  |  | 
c1cc(CN2CCNCCCN3CCN(CC3)CC2)ccc1CN1CCNCCCN2CCN(CC2)CC1 [OB45, p-SB-Homocyclens] | 0.16 | 17.44 | 33.1 | 0.16 | ≤ 0.800 | 1.52 | 0.98 | 0.800 | 1.52 |  |  |  |  |  |  | 
Cl.Cl.Cl.Cl.Cl.Cl.Cl.Cl.c1cc(CN2CCNCCCN3CCN(CC3)CC2)cc(CN2CCNCCCN3CCN(CC3)CC2)c1 [OB46B, m-SB-homocyclens HCl salt] | 0.13 | 34.26 | 41.9 | 0.75 | 0.280 |  | 0.16 | 7.420 | 9.06 | 0.318 |  |  |  |  |  | 
CN1CCN2CCN(CC1)CCN(Cc1nc3ccccc3n1Cc1ccc([N+](=O)[O-])cc1)CC2 [SJA230, CB-BINO2-cyclen] |  |  |  | 0.01 | 7.930 | 16.6 | 0.09 | 7.690 | 16.1 |  |  |  |  |  |  | 
O=[N+]([O-])c1ccc(CC2CNCCN(Cc3ccc(CN4CCCN5CCN(CCCNCC4)CC5)cc3)CCCN3CCN(CC3)C2)cc1 (stereo not drawn) [SJA233, Bis-SB-C-Ar-NO2] | 0.12 | 30.32 | 43.9 | 0.30 | 0.550 | 0.797 | 0.25 | 4.070 | 5.9 |  |  |  |  |  |  | 
p-CB-cyclens HCl salt [OB15B] | 0.22 | 20.94 | 24 | 0.34 | 0.610 | 0.699 |  |  |  |  | 0.5799 | 1.1 | 0.03 | 0.6558 | 1.25 | 0.54
p-CB-homocyclens HCl salt [TA22C] | 0.30 | 16.31 | 17.6 | 0.71 | 0.310 | 0.334 |  |  |  |  | 0.2596 | 0.308 | 0.12 | 0.3189 | 0.379 | 1.79
